Assay results as given in patent US8703979B2, “Preparation of anticancer-active tricyclic compounds via alkyne coupling reaction” (Taheebo Japan Co., Ltd., priority 2010, dated 2014).

## CC(O)c1cc2c(s1)C(=O)c1cccc(O)c1C2=O (stereo not shown) [Example 20, 2-(1-hydroxyethyl)-5-hydroxynaphtho[2,3-b]thiophene-4,9-dione]
  melting point: > 193 °C (dec.)
